# B1: Pisum sativum chloroplastic CuZn-superoxide dismutase (PschSOD), recombinant, without chloroplast transit peptide (enzyme, Pisum sativum (pea), UniProt P11964 49-202, looked up)
# chain: AAKKAVSVLKGTSAVEGVVTLTQDDEGPTTVNVRITGLTPGLHGFHLHEYGDTTNGCISTGPHFNPNKLTHGAPEDEIRHAGDLGNIVANAEGVAEATIVDNQIPLTGPNSVVGRALVVHELQDDLGKGGHELSLSTGNAGGRLACGVVGLTPV
# notes: the forward primer (NdeI, [residues removed]) encodes M-AAKKAVA, the reverse primer ends at ...GLTPV and the stop codon; Cloned NdeI/BamHI into pET-28a; One Cu and one Zn per subunit (about 1.84 Cu and 1.6 Zn per dimer); also called Pisum sativum SOD II; pea chloroplastic SOD; source: E. coli BL21 (DE3), pET-28a, purified (Ni-NTA, desalting, buffer exchange, dialysis)
# Legend:
# [1] = molecular target: T1, PschSOD (recombinant chloroplastic CuZn-SOD) (Lathyrus oleraceus, UniProt P11964); test: pyrogallol autoxidation SOD assay, residual activity; type: biochemical; conditions: superoxide from pyrogallol autoxidation; no constant
# T1 construct: gene SODCP; mature form without chloroplast transit peptide (forward primer encodes MAAKKAVA), pET-28a His-tag kept, E. coli BL21 (DE3), Cu/Zn supplemented, ~18 kDa subunit, homodimer 36-38 kDa
# T1 sequence (P11964 49-202): B1 chain
# [2] = molecular target: the molecule itself; test: SEC; analytical gel filtration on a Bio-Sil 250 column, 5 mM K-PO4 pH 7.2 with 150 mM NaCl, calibrated with standard proteins; native mass compared with subunit mass on 15% SDS-PAGE
Molecule,"pyrogallol autoxidation SOD assay, residual activity [1]",stoichiometry N [2]
"[O]O [O2^∙−, superoxide anion]","Superoxide dismutase specific activity of PschSOD, assayed by pyrogallol method",–
B1,–,2

# From publication PMC4333176, “Heterologous expression and biochemical characterization of a highly active and stable chloroplastic CuZn-superoxide dismutase from Pisum sativum” (BMC Biotechnology, 2015)
